Biological target: c-AMP phosphodiesterase (erythrocytes)
Test: Inhibition of cyclic AMP phosphodiesterase (erythrocytes)
Type: biochemical
Details: phosphodiesterase extracted from erythrocytes, phosphate buffer pH 7.4, radiochemical procedure
Procedure: The procedure used was that described by Arch, J. R. S. and Newsholme, E. A. in Biochem. J. 158, 603, (1976):
Erythrocytes were obtained from Na-citrate (16 mM; 0.1 ml/ml blood) anticoagulated blood by repeated centrifugation with removal of the buff coat and washing with an isotonic buffer (composition in mM: NaCl […], KCl 4, CACl2.2 H2 O 1.8, Na2 HPO4.12 H2 O 0.8, NaH2 PO4 0.2, MgSO4.7 H2 O 0.7, Hepes 3.4; pH 7.4).
The phosphodiesterase was extracted by mixing the erythrocytes with 4 volumes of 7 mM phosphate buffer, pH 7.4, followed by sonification (3×10 sec; 100 W) and then centrifuging for 30 min at 4200 x g.
All supernatants were diluted in the extraction medium and assayed for phosphodiesterase activity within 6 hours of preparation, using the radiochemical procedure described in the above mentioned reference.

In order of falling Ki:
1. CC(O)Cn1cnc2c1c(=O)n(CC1CCCC1)c(=O)n2CC1CCCC1 (stereo not drawn) [Example 9, 1,3-Di-cyclopentylmethyl-7-(2-hydroxypropyl)-xanthine]  26600 nM
2. O=c1c2[nH]cnc2n(CC2CCCCC2)c(=O)n1CC1CC1 [Example 22, 1-(Cyclopropylmethyl)-3-(cyclohexylmethyl)xanthine]  23000 nM
3. CC(O)Cn1cnc2c1c(=O)n(CC1CCC1)c(=O)n2CC1CCC1 (stereo not drawn) [Example 12, 1,3-Di-cyclobutylmethyl-7-(2-hydroxypropyl)-xanthine]  13500 nM
4. O=c1c2[nH]cnc2n(C2CCCC2)c(=O)n1CC1CC1 [Example 18, 1-(Cyclopropylmethyl)-3-cyclopentylxanthine]  8400 nM
5. O=c1c2[nH]cnc2n(CC2CC2)c(=O)n1CC1CC1 [Example 1, 1,3-Di-cyclopropylmethyl xanthine]  5700 nM
6. CCCn1cnc2c1c(=O)n(CC1CC1)c(=O)n2CC1CC1 [Example 14, 1,3-Di-cyclopropylmethyl-7-n-propyl xanthine]  5270 nM
7. O=c1c2[nH]cnc2n(CC2CCCC2)c(=O)n1CC1CCCC1 [Example 3, 1,3-Di-cyclopentylmethyl xanthine]  3700 nM
8. CC(=O)Cn1cnc2c1c(=O)n(C1CCCCC1)c(=O)n2C1CCCCC1 [Example 11, 1,3-Di-cyclohexyl-7-(2-oxopropyl)-xanthine]  2400 nM
9. CCCn1cnc2c1c(=O)n(CC1CCC1)c(=O)n2CC1CCC1 [Example 15, 1,3-Di-cyclobutylmethyl-7-n-propyl xanthine]  2400 nM
10. CC(=O)Cn1cnc2c1c(=O)n(CC1CCCCC1)c(=O)n2CC1CCCCC1 [Example 8, 1,3-Di-cyclohexylmethyl-7-(2-oxopropyl)-xanthine]  2300 nM
11. O=c1c2c(ncn2CC2CC2)n(CC2CC2)c(=O)n1CC1CC1 [Example 16, 1,3,7-Tri-cyclopropylmethyl-xanthine]  2300 nM
12. CC(=O)Cn1cnc2c1c(=O)n(CC1CC1)c(=O)n2CC1CCCCC1 [Example 19, 1-(Cyclopropylmethyl)-3-(cyclohexylmethyl)-7-(2-oxopropyl)xanthine]  2300 nM
13. O=c1c2[nH]cnc2n(CC2CCC2)c(=O)n1CC1CCC1 [Example 2, 1,3-Di-cyclobutylmethyl xanthine]  2200 nM
14. CC(=O)Cn1cnc2c1c(=O)n(CC1CC1)c(=O)n2C1CCCC1 [Example 20, 1-(Cyclopropylmethyl)-3-cyclopentyl-7-(2-oxopropyl)-xanthine]  2000 nM
15. O=c1c2[nH]cnc2n(CC2CCCCC2)c(=O)n1CC1CCCCC1 [Example 4, 1,3-Di-cyclohexylmethyl xanthine]  1700 nM
16. O=c1c2[nH]cnc2n(C2CCC2)c(=O)n1C1CCC1 [Example 13, 1,3-Di-cyclobutyl-xanthine]  1700 nM
17. CC(=O)Cn1cnc2c1c(=O)n(CC1CC1)c(=O)n2CC1CC1 [Example 5, 1,3-Di-cyclopropylmethyl-7-(2-oxopropyl)-xanthine]  1400 nM
18. CC(=O)Cn1cnc2c1c(=O)n(CC1CCCC1)c(=O)n2CC1CCCC1 [Example 7, 1,3-Di-cyclopentylmethyl-7-(2-oxopropyl)-xanthine]  1300 nM
19. O=c1c2[nH]cnc2n(C2CCCCC2)c(=O)n1C1CCCCC1 [Example 10, 1,3-Di-cyclohexyl xanthine]  800 nM
20. CC(=O)Cn1cnc2c1c(=O)n(CC1CCC1)c(=O)n2CC1CCC1 [Example 6, 1,3-Di-cyclobutylmethyl-7-(2-oxopropyl)-xanthine]  150 nM

Test system: hippocampal CA1 field neuronal damage
Test: Delayed neuronal death in gerbils after transient forebrain ischaemia
Type: in vivo, gerbil
Details: 5.0 mg/kg i.p.; conclusion in words
Procedure: Ischaemia was produced in adult male gerbils by occlusion of both common carotid arteries for 3 minutes under halothane/nitrous oxide anaesthesia. During surgery the animals were placed upon a warming blanket. The ischaemia led to neuronal degeneration and to disturbed brain function.
Brains were removed 2 weeks later and 12 μm thick coronal slices were examined light microscopically for neuronal degeneration.
Three groups of animals were used:
2. solvent-treated ligated controls
3. compound-treated ligated animals
The compound was administered 1 hour before the ligation period.
Means±SEM (n) of histopathological score [HPS] which reflects the degree of neuronal damage in the hippocampal CA1 field: […]

For `O=c1c2[nH]cnc2n(CC2CC2)c(=O)n1CC1CC1` [Example 1, 1,3-Di-cyclopropylmethyl xanthine], the “Prevention of ischaemia induced neuronal degeneration” value was “significantly prevented ischaemia induced neuronal degeneration”.
